Results from patent US9758486B1 (priority 2017, dated 2017).
Where two headings read alike, the source gives them in different places.

What was measured:
[1] = system: human brain astrocytoma cells (U-251); assay: MTT tumor cell proliferation inhibition test, U-251; assay type: cell-based; details: read-out: Half Inhibitory Concentration IC50, U-251
Method: (§1) The compounds of the present invention were subjected to tumor cell proliferation inhibition test, and conventional MTT method was used.
(§2) Cell lines: human kidney cancer cells (A-498), human lung cancer cells (A-549), human brain astrocytoma cells (U-251). The culture medium was DMEM+15% NBS+double antibody.
(§3) Sample solution preparation: after dissolving with DMSO (Merck), PBS (−) was added to obtain 100 μmol/L solution or homogeneous suspension. The solution was diluted with PBS (−) in DMSO to a final concentration of 0.1, 1, 10, 20, 40, 60, 80, 100 μmol/L.
(§4) Gossypol was used as control solution, prepared under the same condition.
(§5) Cell culture: adherent growth Tumor cells were cultured in 1640 medium containing 10% inactivated neonatal bovine serum and penicillin, streptomycin (1 million U/L), placed in carbon dioxide incubator at 37° C., 5% CO2, and saturated humidity. Cells were treated serially passaged 2-3 times. The first culture was washed with PBS 2 times, and digested with trypsin. Fresh culture medium was added evenly, cells were adjusted to a appropriate concentration and transferred into a new culture flask. Cell in an exponential phase were chosen for the tests.
(§6) MTT Assay for Cell Viability and IC50 Determination:
(§7) Experimental Principle: Living cells mitochondria in the dehydrogenase can reduce yellow MTT to water-insoluble blue-violet product MT (MTT formazan), deposited in the cells. The amount of production is proportional to the number of living cells. […] DMSO can dissolve blue violet crystals, and the color depth is proportional to the amount contained, so the absorbance measured by the microplate reader can reflect the cell viability.
(§8) Methods: The exponential phase cells were digested and counted and seeded in 96-well plates at a density of 2×10^4/mL at 100 μl per well. After 24 hours of incubation, the cells to be tested were treated with 0.1, 1, 10, 20, 40, 60, 80, 100 μmol/L of the compounds. Each experimental group had 5 wells in each concentration, and the culture medium containing 0.4% DMSO was used as control. After 48 hours, the supernatant was discarded, and 100 μl of MTT ((2-(4,5-dimethyl-2-thiazolyl)-3,5-diphenyl-2H-[…]) (1 mg/mL) was added to each well. After another 4 hours, the supernatant was discarded, and 100 μl of DMSO was added to each well. After mixing, the absorbance was measured at 570 nm using a microplate reader. An IC50 calculation software was used to determine the half inhibitory concentration (IC50).

[2] = system: human lung cancer cells (A-549); assay: MTT tumor cell proliferation inhibition test, A-549; assay type: cell-based; details: read-out: Half Inhibitory Concentration IC50, A-549
Method: as §1, §2, §3, §4, §5, §6, §7, §8

[3] = system: human kidney cancer cells (A-498); assay: MTT tumor cell proliferation inhibition test, A-498; assay type: cell-based; details: read-out: Half Inhibitory Concentration IC50, A-498
Method: as §1, §2, §3, §4, §5, §6, §7, §8

[4] = system: tumor cells (A-498, A-549, U-251); assay: MTT tumor cell proliferation inhibition test, summary in words over the cell lines tested; assay type: cell-based, human; details: summary of Table 1
Method: as §1, §2, §8
These compounds can be used for the study of antitumor agents.

[5] = U-251 cells, MTT, 48 hours treatment
[6] = A549, A-549 cells, MTT, 48 hours treatment
[7] = A498, A-498 cells, MTT, 48 hours treatment

Row | SMILES | IC50 [1, 5] | IC50 [2, 6] | IC50 [3, 7] | antitumor activities (statement in words) [4] | IC50 ([1]; U-251, 48 h) | IC50 ([2]; A549, 48 h) | IC50 ([3]; A498, 48 h)
1 | COc1ccc(N2N=C(C)/C(=C/c3c(O)c(O)c(C(C)C)c4cc(C)c(-c5c(C)cc6c(C(C)C)c(O)c(O)c(C=O)c6c5O)c(O)c34)C2=O)cc1 [C] | > 100 µM | > 100 µM | 25.3 ± 0.95 µM |  |  |  | 
2 | C=CC1=NN(c2ccc(C)cc2)C(=O)/C1=C\c1c(O)c(O)c(C(C)C)c2cc(C)c(-c3c(C)cc4c(C(C)C)c(O)c(O)c(C=O)c4c3O)c(O)c12 [Compound I, (Z)-1,1′,6,6′,7,7′-hexahydroxy-5,5′-diisopropyl-3,3′-dimethyl-8′-((5-oxo-1-(p-tolyl)-3-vinyl-1H-pyrazol-4(5H)-ylidene)methyl)-[2,2′-binaphthalene]-8-carbaldehyde] | 20.7 ± 0.84 µM | 18.1 ± 0.72 µM | 11.7 ± 0.65 µM | good antitumor activities in different cell lines |  |  | 
3 | C=CC1=NN(c2ccc(Cl)cc2)C(=O)/C1=C\c1c(O)c(O)c(C(C)C)c2cc(C)c(-c3c(C)cc4c(C(C)C)c(O)c(O)c(C=O)c4c3O)c(O)c12 [J, (Z)-8′-((1-(4-chlorophenyl)-5-oxo-3-vinyl-1H-pyrazol-4(5H)-ylidene)methyl)-1,1′,6,6′,7,7′-hexahydroxy-5,5′-diisopropyl-3,3′-dimethyl-[2,2′-binaphthalene]-8-carbaldehyde] | 26.2 ± 1.15 µM | 12.7 ± 1.12 µM | 13.8 ± 0.85 µM | good antitumor activities in different cell lines |  |  | 
4 | COC1=NN(c2ccc(OC)cc2)C(=O)/C1=C\c1c(O)c(O)c(C(C)C)c2cc(C)c(-c3c(C)cc4c(C(C)C)c(O)c(O)c(C=O)c4c3O)c(O)c12 [F] | 58.2 ± 2.1 µM | 65.9 ± 2.84 µM | > 100 µM |  |  |  | 
5 | C=CC1=NN(c2c(C)cccc2Cl)C(=O)/C1=C\c1c(O)c(O)c(C(C)C)c2cc(C)c(-c3c(C)cc4c(C(C)C)c(O)c(O)c(C=O)c4c3O)c(O)c12 [L, (Z)-8′-((1-(2-chloro-6-methylphenyl)-5-oxo-3-vinyl-1H-pyrazol-4(5H)-ylidene)methyl)-1,1′,6,6′,7,7′-hexahydroxy-5,5′-diisopropyl-3,3′-dimethyl-[2,2′-binaphthalene]-8-carbaldehyde] | > 100 µM | > 100 µM | > 100 µM |  |  |  | 
6 | CC1=NN(c2c(C)cccc2Cl)C(=O)/C1=C\c1c(O)c(O)c(C(C)C)c2cc(C)c(-c3c(C)cc4c(C(C)C)c(O)c(O)c(C=O)c4c3O)c(O)c12 [K, (Z)-8′-((1-(2-chloro-6-methylphenyl)-3-methyl-5-oxo-1H-pyrazol-4(5H)-ylidene)methyl)-1,1′,6,6′,7,7′-hexahydroxy-5,5′-diisopropyl-3,3′-dimethyl-[2,2′-binaphthalene]-8-carbaldehyde] |  |  |  |  | 11.5 ± 1.32 µM | > 100 µM | > 100 µM
7 | COC1=NN(c2ccc(Cl)cc2)C(=O)/C1=C\c1c(O)c(O)c(C(C)C)c2cc(C)c(-c3c(C)cc4c(C(C)C)c(O)c(O)c(C=O)c4c3O)c(O)c12 [G, (Z)-8′-((1-(4-chlorophenyl)-3-methoxy-5-oxo-1H-pyrazol-4(5H)-ylidene)methyl)-1,1′,6,6′,7,7′-hexahydroxy-5,5′-diisopropyl-3,3′-dimethyl-[2,2′-binaphthalene]-8-carbaldehyde] | > 100 µM | 43.4 ± 1.21 µM | 26.5 ± 1.02 µM | good antitumor activities in different cell lines |  |  | 
8 | CC1=NN(c2ccccc2)C(=O)/C1=C\c1c(O)c(O)c(C(C)C)c2cc(C)c(-c3c(C)cc4c(C(C)C)c(O)c(O)c(C=O)c4c3O)c(O)c12 [Compound A, (Z)-1,1′,6,6′,7,7′-hexahydroxy-5,5′-diisopropyl-3,3′-dimethyl-8′-((3-methyl-5-oxo-1-phenyl-1H-pyrazol-4(5H)-ylidene)methyl)-[2,2′-binaphthalene]-8-carbaldehyde] |  |  |  | good antitumor activities in all three cell lines tested | 10.4 ± 0.67 µM | 10.5 ± 0.92 µM | 11.4 ± 1.03 µM
9 | CC1=NN(c2ccc(C)cc2)C(=O)/C1=C\c1c(O)c(O)c(C(C)C)c2cc(C)c(-c3c(C)cc4c(C(C)C)c(O)c(O)c(C=O)c4c3O)c(O)c12 [B, (Z)-1,1′,6,6′,7,7′-hexahydroxy-5,5′-diisopropyl-3,3′-dimethyl-8′-((3-methyl-5-oxo-1-(p-tolyl)-1H-pyrazol-4(5H)-ylidene)methyl)-[2,2′-binaphthalene]-8-carbaldehyde] |  | 78.4 ± 2.65 µM | 37.6 ± 2.23 µM |  |  |  | 
10 | CC1=NN(c2ccc(Cl)cc2)C(=O)/C1=C\c1c(O)c(O)c(C(C)C)c2cc(C)c(-c3c(C)cc4c(C(C)C)c(O)c(O)c(C=O)c4c3O)c(O)c12 [D, (Z)-8′-((1-(4-chlorophenyl)-3-methyl-5-oxo-1H-pyrazol-4(5H)-ylidene)methyl)-1,1′,6,6′,7,7′-hexahydroxy-5,5′-diisopropyl-3,3′-dimethyl-[2,2′-binaphthalene]-8-carbaldehyde] | > 100 µM | 36.9 ± 0.83 µM | 24.3 ± 0.91 µM |  |  |  | 
11 | C=CC1=NN(c2ccccc2)C(=O)/C1=C\c1c(O)c(O)c(C(C)C)c2cc(C)c(-c3c(C)cc4c(C(C)C)c(O)c(O)c(C=O)c4c3O)c(O)c12 [H, (Z)-1,1′,6,6′,7,7′-hexahydroxy-5,5′-diisopropyl-3,3′-dimethyl-8′-((5-oxo-1-phenyl-3-vinyl-1H-pyrazol-4(5H)-ylidene)methyl)-[2,2′-binaphthalene]-8-carbaldehyde] | 78.7 ± 2.02 µM | > 100 µM | > 100 µM |  |  |  | 
12 | COC1=NN(c2ccccc2)C(=O)/C1=C\c1c(O)c(O)c(C(C)C)c2cc(C)c(-c3c(C)cc4c(C(C)C)c(O)c(O)c(C=O)c4c3O)c(O)c12 [E, (Z)-1,1′,6,6′,7,7′-hexahydroxy-5,5′-diisopropyl-8′-((3-methoxy-5-oxo-1-phenyl-1H-pyrazol-4(5H)-ylidene)methyl)-3,3′-dimethyl-[2,2′-binaphthalene]-8-carbaldehyde] | 26.1 ± 1.8 µM | 26.7 ± 1.12 µM | 17.8 ± 0.95 µM | good antitumor activities in different cell lines |  |  | 
13 | Cc1cc2c(C(C)C)c(O)c(O)c(C=O)c2c(O)c1-c1c(C)cc2c(C(C)C)c(O)c(O)c(C=O)c2c1O [Gossypol] | 20.2 ± 1.3 µM | 14.9 ± 0.64 µM | 11.3 ± 0.28 µM |  |  |  | 
